The nature of data set [1]: Dynamic vapor sorption (hygroscopicity). The data set is classed as physicochemical. Conditions: for DVS wt gain: @ 95% RH, Compound 1 HCl salt forms; for hygroscopicity (in words): DVS; for water uptake: between 0 and 90% RH; for DVS water uptake: up to 90% RH, Compound 1 citrate salt polymorphs. As for the experimental part:
Dynamic vapor sorption (DVS) was measured using DVS advantage (Surface Measurement Systems Ltd). The samples were tested under isotherm (25° C.) at a targeted RH of 0 to 95% full cycle in step mode. For an isotherm test, the chamber temperature was maintained by a water bath at constant 25.0±1.0° C. The relative humidity in the sample chamber was generated by combining different flows of wet and dry nitrogen with variable flow rates. The analysis was performed in 10% RH increments. Sampling rate was 1 sec save data rate is 20 sec. The dm/dt (%) value was set at 0.001 with a dm/dt window of 5 min., a minimum stability duration time of 10 min, and a maximum stage time of 180 min. The sample's equilibrium weight corresponding to each RH was recorded. A sorption isotherm was obtained by plotting equilibrium moisture content versus RH.
Hygroscopicity was determined on a Surface Measurement Systems DVS. A sample size of 5-20 mg was loaded into the DVS instrument sample pan and the sample was analyzed on a DVS automated sorption analyzer at room temperature. The relative humidity was increased from 0% to 90% RH at 10% RH step, then decreased in a similar manner to accomplish a full adsorption/desorption cycle.

A short description of data set [2]: Approximate solubility in various solvents at room temperature. It is filed as physicochemical. As for the experimental part: The resulting mixture was agitated for about 1 day at room temperature. If all of the solids appeared to be dissolved by visual inspection, the estimated solubility was calculated based on the total volume of solvent used to give a complete solution. If solids were present, a known volume of filtrate was evaporated to dryness and the weight of the residue was measured to estimate the solubility.
The resulting mixture was agitated for 1 day at room temperature. If all of the solids appeared to be dissolved by visual inspection, the estimated solubility was calculated based on the total volume of solvent used to give a complete solution. If solids were present, a known volume of filtrate was evaporated to dryness and the weight of the residue was measured to estimate the solubility.

Data set [3] can be described thus: Form conversion / form transfer experiments (humidity, drying, competitive slurries). It is filed as physicochemical. From the text: The thermodynamic relationship between the two forms was explored through form conversion experiments (Table 31).
Data set [4] in a line: Compression test (2000-psi pressure). The data set is classed as physicochemical. Particulars: 2000-psi pressure for about 1 minute.
A short description of data set [5]: Solid state stability of salt forms and free base. It is filed as physicochemical.
A short description of data set [6]: Solubility in biorelevant media (FeSSIF, FaSSIF, FaSSGF, FeSSGF).
Data set [7] in a line: Solubility of salt forms and free base in water, SGF, SIF and 0.5% HPMC in […] Tween 80.
Data set [8] relates to TEAD reporter (8×GTIIC-luciferase) in W138 VA13 cells. Put plainly: TEAD reporter assay. Particulars: 24 or 72 hours. The data set is classed as cell-based. As for the experimental part:
TEAD reporter activity was analyzed using W138 VA13 cells stably expressing a YAP/TAZ responsive synthetic promoter driving luciferase expression (8×GTIIC-luciferase). 10,000 cells per well were seeded on a white-walled 96-well plate and left overnight. After 16-20 hours, cells were treated with compound and TEAD reporter activity was measured 24 or 72 hours later using Bright Glo luciferase assay (Promega) according to the manufacturer's instructions. This assay was performed 3 times for Compound 1 and twice for Trametinib.
On the technique in general: A reporter such as luciferase makes a cellular process visible.

A short description of data set [9]: Approximate solubility of HCl salt starting material in selected organic solvents. It is filed as physicochemical. Particulars: room temperature. As for the experimental part: Solubility of the starting mater in selected organic solvents was determined by mixing with selected solvents at room temperature.

Turning to `CC1(C(N)=O)CCC(n2c(Nc3c(Cl)cc(Cl)cc3Cl)nc3cnc(NC4CCOCC4F)nc32)CC1.Cl.O` (stereo not drawn) [Form 7], the DVS wt gain in [1] is recorded as approximately 4.5% wt.
On the same count and under the same terms, with `CC1(C(N)=O)CCC(n2c(Nc3c(Cl)cc(Cl)cc3Cl)nc3cnc(NC4CCOCC4F)nc32)CC1.Cl.O` (stereo not drawn) [Form 8] the figure was approximately 2% wt.
What is called solubility is the dissolved amount per volume that the medium holds. Turning to `C[C@]1(C(N)=O)CC[C@@H](n2c(Nc3c(Cl)cc(Cl)cc3Cl)nc3cnc(N[C@@H]4CCOC[C@H]4F)nc32)CC1` [Form A], the solubility at 1 day in [2] (1,4-dioxane, organic solvent or mixture, thermodynamic from solid, 1,4-dioxane) is more than 50 mg/mL; in data set [2] (2-MeTHF, organic solvent or mixture, thermodynamic from solid), more than 50 mg/mL; in data set [2] (DCM, organic solvent or mixture, thermodynamic from solid), more than 50 mg/mL; in data set [2] (EtOAc, organic solvent or mixture, thermodynamic from solid), more than 100 mg/mL; in [2] (EtOH, organic solvent or mixture, thermodynamic from solid), more than 20 mg/mL; in data set [2] (EtOH/water (1:1), aqueous with cosolvent or surfactant or cyclodextrin, thermodynamic from solid, EtOH/water (1:1)), more than 3 mg/mL. Besides, the solubility at 1 day is more than 10 mg/mL in data set [2] (IPA, organic solvent or mixture, thermodynamic from solid); more than 50 mg/mL in data set [2] (IPAc, organic solvent or mixture, thermodynamic from solid); more than 50 mg/mL in data set [2] (MEK, organic solvent or mixture, thermodynamic from solid); more than 50 mg/mL in [2] (MIBK, organic solvent or mixture, thermodynamic from solid); more than 20 mg/mL in data set [2] (MTBE, organic solvent or mixture, thermodynamic from solid); more than 3 mg/mL in data set [2] (MeCN, organic solvent or mixture, thermodynamic from solid). Further, the solubility at 1 day in data set [2] (MeCN/water (1:1), aqueous with cosolvent or surfactant or cyclodextrin, thermodynamic from solid, MeCN/water (1:1)) is more than 50 mg/mL; in [2] (MeOAc, organic solvent or mixture, thermodynamic from solid) it was more than 100 mg/mL; in data set [2] (MeOH, organic solvent or mixture, thermodynamic from solid), more than 50 mg/mL; in data set [2] (THF, organic solvent or mixture, thermodynamic from solid), more than 100 mg/mL; in [2] (THF/water (1:1), aqueous with cosolvent or surfactant or cyclodextrin, thermodynamic from solid, THF/water (1:1)) it was more than 50 mg/mL; in data set [2] (acetone, organic solvent or mixture, thermodynamic from solid), more than 100 mg/mL. For the same compound, the solubility at 1 day in data set [2] (heptane, organic solvent or mixture, thermodynamic from solid) was less than 1 mg/mL; in data set [2] (n-BuOH, organic solvent or mixture, thermodynamic from solid), more than 20 mg/mL; in data set [2] (toluene, organic solvent or mixture, thermodynamic from solid) it was more than 10 mg/mL; in data set [2] (water, thermodynamic from solid), less than 1 mg/mL. Also, in data set [1] (between 10 and 30% RH), the weight change entry is “over 3%”. Also, the additional water uptake entry in data set [1] (between 30-90% RH) is “approximately 1.4 wt %”. For the same compound, in data set [1] (listed as A), the “DVS water uptake up to 90 % RH” value is given as 4.7 wt % water. Also, the “Resulting Form” value in data set [3] (no solvent, RT and 0% RH 6 days) is reported as “B + A”.
As for `CC1(C(N)=O)CCC(n2c(Nc3c(Cl)cc(Cl)cc3Cl)nc3cnc(NC4CCOCC4F)nc32)CC1.O=C(O)CC(O)(CC(=O)O)C(=O)O` (stereo not drawn) [Form Y], in data set [1], the “hygroscopicity (in words)” value is “slightly hygroscopic” and the water uptake entry was “about 2.1 % w/w”. For the same compound, the “solid form after compression” value in [4] is “still Form Y”.
In the case of `CC1(C(N)=O)CCC(n2c(Nc3c(Cl)cc(Cl)cc3Cl)nc3cnc(NC4CCOCC4F)nc32)CC1.O=C(O)CC(O)(CC(=O)O)C(=O)O` (stereo not drawn) [Form Z], in [1], the “hygroscopicity (in words)” value is recorded as “slightly hygroscopic” and the water uptake entry is on record as “about 1.6 % w/w”. The “solid form after compression” value in data set [4] is recorded as “still Form Z”.
Take `CC1(C(N)=O)CCC(n2c(Nc3c(Cl)cc(Cl)cc3Cl)nc3cnc(NC4CCOCC4F)nc32)CC1.Cl.O` (stereo not drawn) [HCl Salt]: the “hygroscopicity with respect to monohydrate” value in data set [1] (0-95% RH) is listed as less than 1.0%. In data set [1], the “hygroscopicity (in words)” value is “low hygroscopicity”. Moreover, the remaining water released in data set [1] (from 5% RH to dry) is reported as approximately 2.8 % wt. In data set [1] (from 25 to 95% RH), this compound had an additional moisture sorption of approximately 1.7%. Besides, in data set [1] (from 95 down to 5% RH), the “loss of water content during desorption cycle” value is recorded as approximately 1.5%. The “solid state stability (in words)” value in data set [5] is “chemically and physically stable in solid state”. Further, the “Chemical (40° C./75% RH) RRT = 2.2” value in data set [5] (40° C./75% RH) is 0.02%. The “Physical (40° C./75% RH)” value in [5] (40° C./75% RH) is recorded as “Stable”. In addition, the “Chemical (60° C.) RRT2.2” value in [5] (60° C.) is on record as 0.05%. The “Physical (60° C.)” value in [5] (60° C.) is given as “Stable”. Besides, the pH is 1.82 in data set [6] (FaSSGF), 6.12 in data set [6] (FaSSIF), 5.66 in data set [6] (FeSSGF) and 4.85 in data set [6] (FeSSIF). Also, the pH at final was determined as 3.06 in [7] (0.5% HPMC/[…] Tween80), 1.17 in data set [7] (SGF), 7.22 in [7] (SIF) and 3.65 in data set [7] (Water).
In the case of `CC(=O)Nc1cccc(-n2c(=O)n(C3CC3)c(=O)c3c(Nc4ccc(I)cc4F)n(C)c(=O)c(C)c32)c1` [Trametinib, reference compound], the “inhibition of TEAD reporter activity” value in data set [8] is “did not inhibit”.
Turning to `CC1(C(N)=O)CCC(n2c(Nc3c(Cl)cc(Cl)cc3Cl)nc3cnc(NC4CCOCC4F)nc32)CC1.O=C(O)CC(O)(CC(=O)O)C(=O)O` (stereo not drawn) [Y + Z], the “Resulting Form(s)” value is given as “Y + Z” in [3] (Slurry in EtOAc, RT, 5 days); “Y + Z” in [3] (Slurry in EtOAc, RT, 10 days); “Z + Y” in data set [3] (Slurry in Toluene, 50° C., 4 days); “Z + Y” in data set [3] (Slurry in Toluene, RT, 5 days); “Z + Y” in data set [3] (Slurry in Toluene, RT, 10 days).
For `CC1(C(N)=O)CCC(n2c(Nc3c(Cl)cc(Cl)cc3Cl)nc3cnc(NC4CCOCC4F)nc32)CC1.O=C(O)CC(O)(CC(=O)O)C(=O)O` (stereo not drawn) [Y], the DVS water uptake in data set [1] is approximately 2.1 wt % water.
Still for that read-out and setting: as for `CC1(C(N)=O)CCC(n2c(Nc3c(Cl)cc(Cl)cc3Cl)nc3cnc(NC4CCOCC4F)nc32)CC1.O=C(O)CC(O)(CC(=O)O)C(=O)O` (stereo not drawn) [Z], the figure is approximately 1.6 wt % water.
`C[C@]1(C(N)=O)CC[C@@H](n2c(Nc3c(Cl)cc(Cl)cc3Cl)nc3cnc(N[C@@H]4CCOC[C@H]4F)nc32)CC1` [amorphous]: the reversible weight change entry in data set [1] (between 10 and 50% RH) was “about 3.5%”. For the same compound, in [1], the “DVS water uptake up to 90 % RH” value came out at 6.9 wt % water.
In the case of `CC1(C(N)=O)CCC(n2c(Nc3c(Cl)cc(Cl)cc3Cl)nc3cnc(NC4CCOCC4F)nc32)CC1.Cl` (stereo not drawn) [anhydrate/amorphous starting material], the “Approximate Solubility” value is listed as “S < 0.9 mg/mL” in data set [9] (2-MeTHF); “S < 1.6 mg/mL” in [9] (DCM); “S > 18 mg/mL” in data set [9] (DMAc); “S > 22 mg/mL” in [9] (DMSO); “S < 1.5 mg/mL” in data set [9] (EtOAc); “S > 28 mg/mL” in data set [9] (EtOH). Moreover, the “Approximate Solubility” value is “S < 1.0 mg/mL” in data set [9] (H2O); “S < 1.7 mg/mL” in data set [9] (Heptane); “S < 1.3 mg/mL” in [9] (IPAc); “S < 1.5 mg/mL” in [9] (MIBK); “S < 1.0 mg/mL” in data set [9] (MTBE); “S < 0.9 mg/mL” in data set [9] (MeOAc). Also, the “Approximate Solubility” value in data set [9] (MeOH) is “S > 31 mg/mL”; in [9] (NMP), “S > 24 mg/mL”; in data set [9] (Toluene) it was “S < 1.4 mg/mL”.
In the case of `CC1(C(N)=O)CCC(n2c(Nc3c(Cl)cc(Cl)cc3Cl)nc3cnc(NC4CCOCC4F)nc32)CC1.Cl` (stereo not drawn) [starting material HCl Salt Form], in [1], the DVS wt gain is approximately 3.6% wt and the “hygroscopicity (in words)” value is on record as “moderately hygroscopic”. In addition, the mass change in [1] (from 0% RH to 95% RH at 25° C.) amounted to 3.6 wt %.
Consider Citrate, for which the “hygroscopicity (in words)” value in [1] is on record as “low hygroscopicity”.

For the origin of these results see patent US10513519B2, “Solid forms of (1S,4S)-4-(2-(((3S,4R)-3-fluorotetrahydro-2H-pyran-4-yl)amino)-8-((2,4,6-trichlorophenyl)amino)-9H-purin-9-yl)-1-methylcyclohexane-1-carboxamide and methods of their use” (Signal Pharmaceuticals, LLC, priority 2016, dated 2019).
